The source of these data is US9365522B2, “Pyrazole amide derivative” (AMGEN INC., priority 2015, dated 2016).

In the experiment the target is T1, human RORγ-LBD (Homo sapiens, UniProt P51449).
T1 construct: made in house; host or cells: E. coli (BL-21)
T1 sequence (P51449 262-518): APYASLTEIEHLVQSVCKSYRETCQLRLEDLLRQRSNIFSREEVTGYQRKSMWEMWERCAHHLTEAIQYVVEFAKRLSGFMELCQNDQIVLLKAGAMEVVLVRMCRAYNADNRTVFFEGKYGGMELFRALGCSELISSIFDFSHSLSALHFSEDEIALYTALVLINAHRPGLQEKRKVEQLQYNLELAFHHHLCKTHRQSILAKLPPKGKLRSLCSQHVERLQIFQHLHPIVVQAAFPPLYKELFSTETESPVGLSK
In words: ROR gamma coactivator peptide recruitment Alphascreen assay (RORγ-LBD binding to GRIP1 coactivator peptide). It counts as biochemical. To be noted: 5 nM human RORγ-LBD, 30 nM 7-β-hydroxycholesterol, 50 nM biotinylated GRIP1 coactivator peptide, overnight incubation at room temperature; read-out: result (pIC50, RORγ coactivator peptide recruitment Alphascreen assay) (converted). From the text: Alphascreen™ is a bead-based amplified homogenous luminescent proximity assay that can be used for measuring the effect of compounds on protein-protein interactions. When biological interactions bring donor and acceptor beads into close proximity, reactive oxygen, generated upon laser excitation of the donor beads, initiates a luminescence/fluorescence cascade in the acceptor beads that leads to a highly amplified signal that can be measured as light in the 520-620 nm range. When the acceptor and donor beads are not in proximity, the reactive oxygen decays and only a very low background signal is generated.
An in vitro assay to assess inhibition of RORγ binding to the coactivator GRIP1 was established using Alphascreen™ technology. The interaction between nuclear receptors (NR) and coactivator proteins is a key step in signal transduction from the receptor to the transcriptional machinery and can be measured in vitro using only the ligand binding domain of the nuclear receptor and a peptide containing a coactivator protein LXXLL nuclear receptor binding motif
For the RORγ construct used in the coactivator recruitment assay, nucleotides corresponding to the ligand binding domain (LBD) of wild type human RORγ (amino acids 262-518 of Genbank Accession No. NM_005060.3) were cloned into the pET24 expression vector (Novagen), downstream of in-frame N-terminal 6×His and Flag tag sequences. Recombinant 6×His:Flag-tagged human RORγ-LBD protein was expressed in E. coli (BL-21) and purified by affinity chromatography on a nickel Sepharose column, followed by anion exchange chromatography.
A 4× assay mixture of 6×His:Flag-tagged human RORγ-LBD with the agonist ligand 7-β-hydroxycholesterol was prepared in assay buffer (50 mM HEPES pH 7.4, BSA 0.05%, 150 mM NaCl, 5 mM MgCl2, 1 mM DTT, 0.01% Tween-20). For control wells a 4× mixture of 6×His:Flag-tagged human ROR gamma LBD alone was also prepared.
A 4× stock of biotinylated coactivator peptide containing the LXXLL motif from GRIP1 (Biotin-[…]) was prepared in assay buffer.
A 4×detection mixture of nickel chelate Alphascreen™ acceptor beads (PerkinElmer) and streptavidin Alphascreen™ donor beads (PerkinElmer) was prepared in assay buffer.
Compounds to be tested were arranged in a pre-dose 384-well mother plate serially diluted 1 in 2 over 22 columns, in 100% DMSO, at 40× the final test concentration, from a high concentration of 4 mM. DMSO with no compound was placed in control columns. The compounds were robotically dispensed directly into assay plates containing assay buffer to a 4× final test concentration.
Following compound addition, the 6×His:Flag-tagged human RORγ-LBD plus 7-β-hydroxycholesterol assay mixture, biotinylated coactivator peptide and detection mixture were added. Final assay conditions were 5 nM 6×His:Flag-tagged human RORγ-LBD, 30 nM 7-β-hydroxycholesterol, 50 nM biotinylated coactivator peptide, 2.5 ug/ml nickel acceptor beads and 10 ug/ml streptavidin donor beads. The final concentration of DMSO in the assay was 2.5%.
After overnight incubation at room temperature plates were read on and Envision™ plate reader (PerkinElmer).
Data was plotted and pIC50 values were calculated using the Genedata Screener™ data analysis suite (Genedata).
A general note: Bead proximity is the source of the signal in Alpha formats.
With `COC(CN(CC(C)(C)C)C(=O)c1cnn([C@H]2CC[C@H](C(=O)O)CC2)c1C(F)(F)F)c1c(Cl)cc(C)cc1Cl` (relative stereo) [Example 529, trans-4-(4-(((2R/S)-2-(2,6-dichloro-4-methylphenyl)-2-methoxyethyl)(2,2-dimethylpropyl)carbamoyl)-5-(trifluoromethyl)-1H-pyrazol-1-yl)cyclohexanecarboxylic acid], the IC50 was 63.1 nM.
For `CC(C)[C@@H]1C[C@H](Cc2c(Cl)cncc2Cl)N(C(=O)c2cnn([C@H]3CC[C@](C)(C(=O)O)CC3)c2C(F)(F)F)C1` (single isomer, unassigned) [Example 701], the IC50 is 9.33 nM.
To `CC(C)(C)CN(CC(=O)c1c(Cl)cncc1Cl)C(=O)c1cnn([C@H]2CC[C@H](C(=O)O)C(C)(C)C2)c1C(F)(F)F` (single isomer, unassigned) [Example 785] belongs 3.98 nM.
As to `C[C@]1(C(=O)O)CC[C@H](n2ncc(C(=O)N3C[C@@H](Oc4ccccc4)C[C@@H]3C(=O)c3c(Cl)cncc3Cl)c2C(F)(F)F)CC1` (single isomer, unassigned) [Example 796], the IC50 is 18200 nM.
To `CC1(CN(CC(=O)c2c(Cl)cncc2Cl)C(=O)c2cnn([C@H]3CC[C@H](C(=O)O)C(C)(C)C3)c2C(F)(F)F)CCC1` (single isomer, unassigned) [Example 807] belongs 45.7 nM; to `C[C@H]1C[C@@H](n2ncc(C(=O)N(CC(=O)c3c(Cl)cncc3Cl)CC(C)(C)C)c2C(F)(F)F)CC[C@@H]1C(=O)O` (single isomer, unassigned) [Example 813], 6.03 nM; to `C[C@]1(C(=O)O)CC[C@H](n2ncc(C(=O)N3C[C@H](C4CCCCC4)C[C@@H]3C(=O)c3c(Cl)cncc3Cl)c2C(F)(F)F)CC1` (single isomer, unassigned) [Example 822], 5890 nM.
The same measure for `C[C@]1(C(=O)O)CC[C@H](n2ncc(C(=O)N3C[C@H](C4CCCCC4)C[C@H]3C(=O)c3c(Cl)cncc3Cl)c2C(F)(F)F)CC1` (single isomer, unassigned) [Example 823]: 9120 nM; for `CC(C)(C)CN(CC(=O)c1c(Cl)cncc1Cl)C(=O)c1cnn([C@H]2C[C@]3(C[C@H](C(=O)O)C3)C2)c1C(F)(F)F` (single isomer, unassigned) [Example 837]: 3.72 nM; for `C[C@H]1C[C@@](C)(C(=O)O)CCC1n1ncc(C(=O)N(CC(=O)c2c(Cl)cncc2Cl)CC(C)(C)C)c1C(F)(F)F` (single isomer, unassigned) [Example 843]: 5.89 nM.
With `CC1(C)[C@@H]2C[C@H](N(CC(=O)c3c(Cl)cccc3Cl)C(=O)c3cnn([C@H]4C[C@@H](CC(=O)O)C4)c3C(F)(F)F)C[C@@H]21` (single isomer, unassigned) [Example 858], the IC50 was 2 nM.
`C[C@H]1C[C@@H](n2ncc(C(=O)N(CC(=O)c3c(Cl)cncc3Cl)CC(C)(C)C(F)(F)F)c2C(F)(F)F)CC[C@@H]1C(=O)O` (single isomer, unassigned) [Example 879]: the IC50 is 2.95 nM.
To `Cc1cc(Cl)c(CCN(CC2(C)CCCCC2)C(=O)c2cnn(C3CCC(C(=O)O)CC3)c2C(F)(F)F)c(Cl)c1` (stereo in doubt) [Example 511, trans-4-(4-((2-(2,6-dichloro-4-methylphenyl)ethyl)((1-methylcyclohexyl)methyl)carbamoyl)-5-(trifluoromethyl)-1H-pyrazol-1-yl)cyclohexanecarboxylic acid] belongs 1.86 nM; to `Cc1cc(Cl)c(CCN(CC(C)(C)C)C(=O)c2cnn(C3CCC(C(=O)O)CC3)c2C(F)(F)F)c(Cl)c1` (stereo in doubt) [Example 512, trans-4-(4-((2-(2,6-dichloro-4-methylphenyl)ethyl)(2,2 - dimethylpropyl)carbamoyl)-5-(trifluoromethyl)-1H-pyrazol-1-yl)cyclohexanecarboxylic acid], 7.24 nM; to `Cc1cc(Cl)c(C(=O)CN(C(=O)c2cnn(C3CCC(C(=O)O)CC3)c2C(F)(F)F)C2CCC(C)(C)CC2)c(Cl)c1` (stereo in doubt) [Example 516, trans-4-(4-((2-(2,6-dichloro-4-methylphenyl)-2-oxoethyl)(4,4-dimethylcyclohexyl)carbamoyl)-5-(trifluoromethyl)-1H-pyrazol-1-yl)-1-cyclohexanecarboxylic acid], 6.03 nM.
For the compound `C[C@@H]1C[C@@H](n2ncc(C(=O)N(CC(=O)c3c(Cl)cccc3Cl)CC3CC(C)(C)C3)c2C(F)(F)F)CC[C@@H]1C(=O)O` (stereo in doubt) [Example 572, (1S,2R,4S)-4-(4-((2-(2,6-dichlorophenyl)-2-oxoethyl)((3,3-dimethylcyclobutyl)methyl)carbamoyl) 5-(trifluoromethyl)-1H-pyrazol-1-yl)-2-methylcyclohexanecarboxylic acid], the IC50 was 4.68 nM.
As for `C=CC[C@@H]1CCCC[C@@H]1n1ncc(C(=O)N(CC(=O)c2c(Cl)cncc2Cl)CC(C)(C)C)c1C(F)(F)F` (stereo in doubt) [Example 586, N-(2-(3,5-dichloro-4-pyridinyl)-2-oxoethyl)-N-(2,2-dimethylpropyl)-1-((1S,2S)-2-(2-propen-1-yl)cyclohexyl)-5-(trifluoromethyl)-1H-pyrazole-4-carboxamide], the IC50 was 331 nM.
With `O=C(CN(CC1(F)CCCC1)C(=O)c1cnn(C2CCC(C(=O)O)CC2)c1C(F)(F)F)c1c(Cl)cccc1Cl` (stereo in doubt) [Example 603, cis-4-(4-((2-(2,6-dichlorophenyl)-2-oxoethyl)((1-fluorocyclopentyl)methyl)carbamoyl)-5-(trifluoromethyl)-1H-pyrazol-1-yl)cyclohexanecarboxylic acid], the IC50 is 49 nM.
The same measure for `O=C(O)C1CCC(n2ncc(C(=O)N(CCc3c(Cl)cncc3Cl)CC3(F)CCCC3)c2C(F)(F)F)CC1` (stereo in doubt) [Example 609, cis-4-(4-((2-(3,5-dichloro-4-pyridinyl)ethyl)((1-fluorocyclopentyl)methyl)carbamoyl)-5-(trifluoromethyl)-1H-pyrazol-1-yl)cyclohexanecarboxylic acid]: 95.5 nM.
To `O=C(CN(C(=O)c1cnn([C@H]2CC[C@@H](C(=O)O)CC2)c1C(F)(F)F)C1CCC12CCCC2)c1c(Cl)cccc1Cl` (stereo in doubt) [Example 627, cis-4-(4-((2-(2,6-dichlorophenyl)-2-oxoethyl)((1R)-spiro[3.4]oct-1-yl)carbamoyl)-5-(trifluoromethyl)-1H-pyrazol-1-yl)cyclohexanecarboxylic acid] belongs 64.6 nM; to `C[C@@H]1C[C@@H](n2ncc(C(=O)N(CC(=O)c3c(Cl)cncc3Cl)CC3(F)CC3)c2C(F)(F)F)CC[C@@H]1C(=O)O` (stereo in doubt) [Example 736, (1S,2R,4S)-4-(4-((2-(3,5-dichloro-4-pyridinyl)-2-oxoethyl)((1-fluorocyclopropyl)methyl)carbamoyl)-5-(trifluoromethyl)-1H-pyrazol-1-yl)-2-methylcyclohexanecarboxylic acid], 110 nM; to `C[C@H]1C[C@H](n2ncc(C(=O)N(CC(=O)c3c(Cl)cncc3Cl)CC3(F)CC3)c2C(F)(F)F)CC[C@H]1C(=O)O` (stereo in doubt) [Example 737, (1R,2S,4R)-4-(4-((2-(3,5-dichloro-4-pyridinyl)-2-oxoethyl)((1-fluorocyclopropyl)methyl)carbamoyl)-5-(trifluoromethyl)-1H-pyrazol-1-yl)-2-methylcyclohexanecarboxylic acid], 14.1 nM.
